Test results as given in paper PMC5760719, “Biotransformation of polyunsaturated fatty acids to bioactive hepoxilins and trioxilins by microbial enzymes” (Nature Communications, 2018).

Key:
Test in all cases: product formation by HPLC
Type in all cases: biochemical
[1] = target: T1, 12-LOX (ARA 12-lipoxygenase, MXAN_1745) (Myxococcus xanthus, UniProt Q1DBH8); settings: pathway reaction with purified enzyme; dioxygenation to 12-HpEPE
T1 sequence (Q1DBH8 1-715): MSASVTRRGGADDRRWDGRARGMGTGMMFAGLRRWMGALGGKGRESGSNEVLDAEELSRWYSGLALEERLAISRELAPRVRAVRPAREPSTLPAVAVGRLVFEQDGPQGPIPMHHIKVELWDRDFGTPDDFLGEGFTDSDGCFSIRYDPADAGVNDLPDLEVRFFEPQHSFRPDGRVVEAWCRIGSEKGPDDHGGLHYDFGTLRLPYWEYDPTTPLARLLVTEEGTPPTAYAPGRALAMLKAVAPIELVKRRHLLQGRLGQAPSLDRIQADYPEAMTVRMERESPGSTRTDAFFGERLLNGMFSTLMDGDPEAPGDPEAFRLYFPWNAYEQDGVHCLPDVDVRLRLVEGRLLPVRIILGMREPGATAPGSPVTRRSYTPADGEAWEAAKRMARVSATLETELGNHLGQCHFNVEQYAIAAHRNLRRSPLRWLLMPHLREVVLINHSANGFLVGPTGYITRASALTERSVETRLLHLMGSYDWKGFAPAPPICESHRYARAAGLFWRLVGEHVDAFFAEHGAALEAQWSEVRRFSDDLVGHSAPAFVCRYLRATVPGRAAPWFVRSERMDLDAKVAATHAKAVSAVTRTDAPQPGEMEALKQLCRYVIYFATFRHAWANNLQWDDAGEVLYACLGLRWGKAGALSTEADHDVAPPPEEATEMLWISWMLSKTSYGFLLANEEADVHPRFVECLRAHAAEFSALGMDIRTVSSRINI

[2] = target: T2, 11-LOX (ARA 11-lipoxygenase, MXAN_1744) (Myxococcus xanthus, UniProt Q1DBH9); settings: pathway reaction with purified enzyme; dioxygenation to 11-HpEPE
T2 sequence (Q1DBH9 1-675): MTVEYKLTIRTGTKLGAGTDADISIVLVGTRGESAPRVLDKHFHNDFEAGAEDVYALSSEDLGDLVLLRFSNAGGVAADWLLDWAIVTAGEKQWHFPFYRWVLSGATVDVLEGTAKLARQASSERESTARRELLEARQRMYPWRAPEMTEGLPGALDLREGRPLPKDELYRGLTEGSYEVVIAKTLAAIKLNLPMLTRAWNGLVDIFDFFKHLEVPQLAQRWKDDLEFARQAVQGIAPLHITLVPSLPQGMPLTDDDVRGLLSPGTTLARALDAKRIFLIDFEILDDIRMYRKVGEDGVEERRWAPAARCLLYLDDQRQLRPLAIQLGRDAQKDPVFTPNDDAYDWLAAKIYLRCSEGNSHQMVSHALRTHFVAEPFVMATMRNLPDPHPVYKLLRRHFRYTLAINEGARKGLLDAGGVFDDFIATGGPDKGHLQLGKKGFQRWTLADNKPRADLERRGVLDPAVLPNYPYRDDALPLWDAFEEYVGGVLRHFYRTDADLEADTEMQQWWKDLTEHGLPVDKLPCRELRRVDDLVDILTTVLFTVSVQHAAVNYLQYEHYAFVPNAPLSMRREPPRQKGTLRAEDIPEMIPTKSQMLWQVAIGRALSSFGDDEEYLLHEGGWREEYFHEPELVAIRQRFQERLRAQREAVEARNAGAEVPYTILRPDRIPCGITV

[3] = target: T3, EH (epoxide hydrolase, MXAN_1644) (Myxococcus xanthus, UniProt Q1DBS7); settings: pathway reaction with purified enzymes; HXD3 formed by 11-LOX, hydrolysis to TrXD3
T3 sequence (Q1DBS7 1-318): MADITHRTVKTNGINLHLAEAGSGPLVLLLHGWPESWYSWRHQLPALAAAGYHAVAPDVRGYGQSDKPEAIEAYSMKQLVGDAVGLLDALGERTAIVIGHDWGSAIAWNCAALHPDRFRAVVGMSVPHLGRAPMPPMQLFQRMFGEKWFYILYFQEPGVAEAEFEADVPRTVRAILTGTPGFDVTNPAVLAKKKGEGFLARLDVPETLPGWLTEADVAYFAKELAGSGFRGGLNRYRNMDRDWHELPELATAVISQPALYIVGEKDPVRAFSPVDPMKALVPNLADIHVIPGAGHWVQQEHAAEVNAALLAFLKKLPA

Row | SMILES | product formation by HPLC [1] | product formation by HPLC [2] | product formation by HPLC [3]
1 | CC/C=C\C/C=C\C/C=C\C/C=C\C/C=C\CCCC(=O)O [EPA, eicosapentaenoic acid] | 12-LOX and 11-LOX converted EPA to 12-hydroperoxypentaenoic acid (HpEPE) and 11-HpEPE, respectively | 12-LOX and 11-LOX converted EPA to 12-hydroperoxypentaenoic acid (HpEPE) and 11-HpEPE, respectively | –
2 | CCCCC/C=C\C(O)C1OC1C/C=C\C/C=C\CCCC(=O)O (stereo not drawn) [HXD3] | – | – | HXB3 and HxD3, respectively, which were then converted to TrXB3 and TrXD3, respectively, by EH
